In patent publication US10253002B2, “Compounds and methods of treating infections” (Neoculi Pty Ltd., priority 2013, dated 2019):
≈ marks a conversion by molar mass, not a printed value. Read-outs that look alike come from different tables or passages of the source.

Assays:
[1] = tested on: vancomycin-resistant Enterococcus spp. (VRE); experiment: Broth microdilution MIC (CLSI), Example 1; format: cell-based
Procedure: Cation adjusted Mueller Hinton Broth (CAMHB) was prepared using 100 mL sterile Mueller Hinton broth (pH adjusted). To each 100 mL volume, 125 μL of calcium stock solution (10 mg Ca^2+ per ml) and 43 μL magnesium stock solution (10 mg Mg^2+ per mL) was aseptically added. Sufficient broth is made up for daily use, with unused portions being stored at 4° C. overnight.
Potency was described as 1000 mg/g or 100%. The powder was dissolved in 10 mL DMSO and 1 mL volumes were aliquoted into eppendorf tubes and stored at −80° C.
Serial dilutions were prepared in 96 well plates were set up in a safety cabinet according to methods standard in the art. Briefly: 90 μL of the working antibiotic solution was added to each well in Column 12 of the plate, and mixed well, before 90 μL was transferred to column 11. The solutions were mixed again, and then transferred to the next column as before, continuing the dilutions through to column 3. Mixing the well requires the pick up and expulsion of 90 μL in each well 3-4 times before picking up and transferring the 90 μL to the next well. […] The trays were set up as follows: 2 strains were tested in duplicate in one tray, such that strain 1 was located in rows A to D, strain 2 was located in rows E to H, etc.
Fresh cultures of bacteria were prepared for testing on sheep blood agar (SBA), and overnight incubation at 37° C. as follows; 2-3 colonies of each strain in 7 mL sterile saline, and the OD600 measured as an indication of the density (approx. […] or 0.5 McFarland Standard). The bacterial suspension was adjusted to a final absorbance of 0.08 to 0.100, using saline to achieve correct density, and as the blank. Within 15 minutes of preparation, the adjusted bacterial suspension with sterile saline 1:20 (1 mL into 19 mL sterile saline) to achieve a final bacterial concentration of 4 to 5×10^6 CFU/mL. The bacterial solution was placed into a sterile trough and 10 μL of bacterial solution added into wells 2 through to 12 on each required row (dilution of 1:10, with final concentration of bacteria in wells=5×10^5 CFU/mL). The tray was sealed and incubated at 37° C. for 18-24 h. The purity of bacterial suspension was confirmed by streaking out 50 μL of the 1:20 dilution onto a SBA plate, which was incubated for 37° C. for 18 h and examined. Viable counts were carried out to ensure that the correct concentration of bacteria and been added to the wells. The diluted bacterial solution (4 to 5×10^6 CFU/mL) was diluted 1:10 downwards by adding 100 μL to 900 μL of sterile saline in sterile tubes, and the serial dilutions continued 1:10 for 5 tubes. 100 μL (4-5 drops) of the 4th and 5th dilutions (tube 4=105 and tube 5=10^6 CFU/ml) was plated around in duplicate on pre-dried PCA agar plates and incubated at 37° C. overnight. The following day the number of colonies on the plates was counted and the average count in 100 μL obtained. The study was multiplied by 10 to obtain a viable bacterial count per mL.
Minimum inhibitory concentrations (μg/mL) were determined using the broth microdilution method recommended by the Clinical and Laboratory Standards Institute (CLSI) (Methods for Dilution Antimicrobial Susceptibility Tests for Bacteria That Grow Aerobically; Approved Standard—Seventh Edition. CLSI M7-A7, 2006; Performance Standards for Antimicrobial Disk and Dilution Susceptibility Tests for Bacteria Isolated from Animals; Approved Standard—Second Edition. CLSI M31-A2, 2002; Performance Standards for Antimicrobial Susceptibility Testing; CLSI M2-A9, 2006).
MIC breakpoints were determined by visual assessment and then confirmed using an ELISA plate reader, measuring absorbance levels at 450 nm. Bacterial growth (turbidity) in the wells with antimicrobial was compared with the amount of growth (turbidity) in the growth-control well (containing no antimicrobial).

Escherichia coli = experiment: Broth microdilution MIC, Example 7 (NCL812 and analogues); format: cell-based
[2] = Enterococcus isolates of Table 4, Test 2
[3] = Enterococcus, VRE, B09/2087, Test 1, read-out: MIC
[4] = Enterococcus, VRE, Enterococcus 011, Test 1, read-out: MIC
[5] = Enterococcus, VRE, Enterococcus 012, Test 1, read-out: MIC
[6] = Enterococcus, VRE, Enterococcus 012, Test 2, read-out: MIC
[7] = Enterococcus, VRE, Enterococcus 013, Test 1, read-out: MIC
[8] = Enterococcus, VRE, Enterococcus 013, Test 2, read-out: MIC
[9] = Enterococcus, VRE, VRE 001, Test 1, read-out: MIC
[10] = Enterococcus, VRE, VRE 001, Test 2, read-out: MIC
[11] = Enterococcus, VRE, VRE 003, Test 1, read-out: MIC
[12] = Enterococcus, VRE, VRE 003, Test 2, read-out: MIC
[13] = Enterococcus, VRE, VRE 005, Test 1, read-out: MIC
[14] = Enterococcus, VRE, VRE 005, Test 2, read-out: MIC
[15] = Enterococcus, VRE, VRE 006, Test 1, read-out: MIC
[16] = Enterococcus, VRE, VRE 006, Test 2, read-out: MIC
[17] = Escherichia coli, read-out: MIC (μg/ml) at 24 hours, E. coli, 24 hours, 1st and 2nd replicate rows

With N=C(N/N=C/c1ccc(Cl)cc1)N/N=C/c1ccc(Cl)cc1 [NCL812, 1,3-bis[(E)-(4-chlorophenyl)methyleneamino]guanidine] the MIC range ([1]; E. faecalis, 4 isolates) was 2 to 4 µg/mL, the MIC range ([1]; E. faecium, 16 isolates) was 2 to 4 µg/mL and the MIC90 ([1]; Enterococcus isolates of Table 4, Test 1) was 4 µg/mL (≈ 12 µM). It also gave an MIC90 [1, 2] of 4 µg/mL (≈ 12 µM), an MIC [1, 3] of 2 µg/mL (≈ 5.98 µM) and an MIC [1, 4] of 2 µg/mL (≈ 5.98 µM). It also gave an MIC [1, 5] of 2 µg/mL (≈ 5.98 µM), an MIC [1, 6] of 2 µg/mL (≈ 5.98 µM) and an MIC [1, 7] of 2 µg/mL (≈ 5.98 µM). The MIC [1, 8] was 2 µg/mL (≈ 5.98 µM), the MIC [1, 9] was 2 µg/mL (≈ 5.98 µM) and the MIC [1, 10] was 2 µg/mL (≈ 5.98 µM). It also gave an MIC [1, 11] of 2 µg/mL (≈ 5.98 µM), an MIC [1, 12] of 2 µg/mL (≈ 5.98 µM) and an MIC [1, 13] of 2 µg/mL (≈ 5.98 µM). The MIC [1, 14] was 2 µg/mL (≈ 5.98 µM), the MIC [1, 15] was 2 µg/mL (≈ 5.98 µM) and the MIC [1, 16] was 2 µg/mL (≈ 5.98 µM). The “MIC (μg/ml) at 24 hours, E. coli” value (Escherichia coli; 24 hours, 1st and 2nd replicate rows) was over 128 µg/mL, the MIC (Escherichia coli; E. coli, 1st) was over 128 µg/mL and the MIC (Escherichia coli; E. coli, 2nd) was over 128 µg/mL. For the same compound, the MIC (Escherichia coli; [17]) was over 128 µg/mL and the MIC (Escherichia coli; Escherichia coli, read-out: MIC) was over 128 µg/mL.
CC1(C)S[C@@H]2[C@H](NC(=O)[C@H](N)c3ccccc3)C(=O)N2[C@H]1C(=O)O [Ampicillin] showed an MIC range ([1]; E. faecalis, 4 isolates) of 1 µg/mL (≈ 2.86 µM), an MIC50 ([1]; E. faecium, 16 isolates) of 1 µg/mL (≈ 2.86 µM) and an MIC range ([1]; E. faecium, 16 isolates) of 1 µg/mL (≈ 2.86 µM). The MIC90 ([1]; E. faecium, 16 isolates, read-out: MIC90) was 2 µg/mL (≈ 5.72 µM), the MIC ([1]; E. faecium, 16 isolates, read-out: MIC mode) was 1 µg/mL (≈ 2.86 µM) and the MIC ([1]; Enterococcus faecalis strain ATCC 29212, read-out: MIC of control strain (internal quality control)) was 1 µg/mL. The MIC90 [1, 2] was 2 µg/mL (≈ 5.72 µM), the MIC ([1]; Enterococcus, ATCC 29212 / VRE, Enterococcus spp. ATCC 29212, Test 1, read-out: MIC) was 1 µg/mL (≈ 2.86 µM) and the MIC ([1]; Enterococcus, ATCC 29212 / VRE, Enterococcus spp. ATCC 29212, Test 2, read-out: MIC) was 1 µg/mL (≈ 2.86 µM). For the same compound, the MIC ([1]; Enterococcus, VRE, 20 isolates, read-out: MIC mode) was 1 µg/mL (≈ 2.86 µM), the MIC ([1]; Enterococcus, VRE, B09/2021, Test 1, read-out: MIC) was 1 µg/mL (≈ 2.86 µM) and the MIC ([1]; Enterococcus, VRE, B09/2021, Test 2, read-out: MIC) was 1 µg/mL (≈ 2.86 µM). For the same compound, the MIC ([1]; Enterococcus, VRE, B09/2032, Test 1, read-out: MIC) was 2 µg/mL (≈ 5.72 µM), the MIC ([1]; Enterococcus, VRE, B09/2032, Test 2, read-out: MIC) was 2 µg/mL (≈ 5.72 µM) and the MIC [1, 3] was 2 µg/mL (≈ 5.72 µM). It also gave an MIC ([1]; Enterococcus, VRE, B09/2087, Test 2, read-out: MIC) of 1 µg/mL (≈ 2.86 µM), an MIC ([1]; Enterococcus, VRE, B09/2088, Test 1, read-out: MIC) of 1 µg/mL (≈ 2.86 µM) and an MIC ([1]; Enterococcus, VRE, B09/2088, Test 2, read-out: MIC) of 1 µg/mL (≈ 2.86 µM). The MIC ([1]; Enterococcus, VRE, B09/2121, Test 1, read-out: MIC) was 1 µg/mL (≈ 2.86 µM), the MIC ([1]; Enterococcus, VRE, B09/2121, Test 2, read-out: MIC) was 1 µg/mL (≈ 2.86 µM) and the MIC ([1]; Enterococcus, VRE, B09/2192, Test 1, read-out: MIC) was 1 µg/mL (≈ 2.86 µM). It also gave an MIC ([1]; Enterococcus, VRE, B09/2192, Test 2, read-out: MIC) of 1 µg/mL (≈ 2.86 µM), an MIC ([1]; Enterococcus, VRE, Enterococcus 008, Test 1, read-out: MIC) of 1 µg/mL (≈ 2.86 µM) and an MIC ([1]; Enterococcus, VRE, Enterococcus 008, Test 2, read-out: MIC) of 1 µg/mL (≈ 2.86 µM). The MIC ([1]; Enterococcus, VRE, Enterococcus 009, Test 1, read-out: MIC) was 1 µg/mL (≈ 2.86 µM), the MIC ([1]; Enterococcus, VRE, Enterococcus 009, Test 2, read-out: MIC) was 1 µg/mL (≈ 2.86 µM) and the MIC ([1]; Enterococcus, VRE, Enterococcus 010, Test 1, read-out: MIC) was 2 µg/mL (≈ 5.72 µM). It also gave an MIC ([1]; Enterococcus, VRE, Enterococcus 010, Test 2, read-out: MIC) of 2 µg/mL (≈ 5.72 µM), an MIC [1, 4] of 1 µg/mL (≈ 2.86 µM) and an MIC ([1]; Enterococcus, VRE, Enterococcus 011, Test 2, read-out: MIC) of 1 µg/mL (≈ 2.86 µM). The MIC [1, 5] was 0.5 µg/mL (≈ 1.43 µM), the MIC [1, 6] was 0.5 µg/mL (≈ 1.43 µM) and the MIC [1, 7] was 2 µg/mL (≈ 5.72 µM). The MIC [1, 8] was 2 µg/mL (≈ 5.72 µM), the MIC ([1]; Enterococcus, VRE, Enterococcus 014, Test 1, read-out: MIC) was 1 µg/mL (≈ 2.86 µM) and the MIC ([1]; Enterococcus, VRE, Enterococcus 014, Test 2, read-out: MIC) was 1 µg/mL (≈ 2.86 µM). It also gave an MIC [1, 9] of 0.5 µg/mL (≈ 1.43 µM), an MIC [1, 10] of 0.5 µg/mL (≈ 1.43 µM) and an MIC ([1]; Enterococcus, VRE, VRE 002, Test 1, read-out: MIC) of 1 µg/mL (≈ 2.86 µM). It also gave an MIC ([1]; Enterococcus, VRE, VRE 002, Test 2, read-out: MIC) of 1 µg/mL (≈ 2.86 µM), an MIC [1, 11] of 0.5 µg/mL (≈ 1.43 µM) and an MIC [1, 12] of 0.5 µg/mL (≈ 1.43 µM). It also gave an MIC ([1]; Enterococcus, VRE, VRE 004, Test 1, read-out: MIC) of 1 µg/mL (≈ 2.86 µM), an MIC ([1]; Enterococcus, VRE, VRE 004, Test 2, read-out: MIC) of 1 µg/mL (≈ 2.86 µM) and an MIC [1, 13] of 1 µg/mL (≈ 2.86 µM). It also gave an MIC [1, 14] of 1 µg/mL (≈ 2.86 µM), an MIC [1, 15] of 1 µg/mL (≈ 2.86 µM) and an MIC [1, 16] of 1 µg/mL (≈ 2.86 µM). The MIC ([1]; Enterococcus, VRE, VRE 007, Test 1, read-out: MIC) was 1 µg/mL (≈ 2.86 µM), the MIC ([1]; Enterococcus, VRE, VRE 007, Test 2, read-out: MIC) was 1 µg/mL (≈ 2.86 µM) and the MIC50 ([1]; Enterococcus, VRE, 20 isolates) was 1 µg/mL (≈ 2.86 µM). For the same compound, the MIC90 ([1]; VRE, 20 isolates) was 2 µg/mL (≈ 5.72 µM), the MIC90 ([1]; VRE, Enterococcus isolates of Table 4, Test 1, read-out: MIC90) was 2 µg/mL (≈ 5.72 µM) and the MIC (Escherichia coli; E. coli, 2nd) was 4 µg/mL (≈ 11.4 µM). It also gave an MIC (Escherichia coli; [17]) of 4 µg/mL (≈ 11.4 µM) and an MIC (Escherichia coli; Escherichia coli, E. coli, 1st, read-out: MIC) of 4 µg/mL (≈ 11.4 µM).
